Experimental findings from ChEMBL document CHEMBL1201862, “PubChem BioAssay data set” (2004) are described below.

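Following 48 hours of exposure in 96-well plates, responses at five concentrations were used to interpolate endpoints linearly. GI50 = concentration required for 50% inhibition of growth.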 The source made the active and inactive calls. No stated cut-off is given here; in the data, active = GI50 up to about 1.1 µM and inactive = higher.

Among the test systems are 786-0; NCI-H23; SR; U-251; SK-MEL-28; RXF 393; UACC-62; MOLT-4; OVCAR-8; COLO 205; HCT-15; KM12; Hs-578T; A498; CCRF-CEM; SW-620; SF-539; MDA-N; SK-OV-3; M19-MEL.
Holding throughout (experiment): NCI anticancer screen, dose series, 48 h

On to `O=c1c2cc(Cl)ccc2[nH]c2cc(O)cc(O)c12`, for which the GI50 is > 10 µM (inactive) in the assay with 786-0; 9.02 µM (inactive) with NCI-H23; > 10 µM (inactive) in the assay on SR; > 10 µM (inactive) in the assay on U-251; > 10 µM (inactive) in the assay with SK-MEL-28; > 10 µM (inactive) in the assay with RXF 393. Further, the GI50 was > 10 µM (inactive) with UACC-62; > 10 µM (inactive) in the assay with MOLT-4; > 10 µM (inactive) with OVCAR-8; > 10 µM (inactive) in the assay on COLO 205; above 10 µM in the assay with HCT-15; > 10 µM (inactive) in the assay on KM12. Further, the GI50 in the assay on Hs-578T, with A498, with CCRF-CEM, with SW-620, in the assay with SF-539 and in the assay with MDA-N was > 10 µM (inactive) throughout. The GI50 in the assay on SK-OV-3 was > 10 µM (inactive).

Take `CC(=O)O[C@H]1CCC2[C@@H]3CCC4NC(=O)C(C#N)C[C@]4(C)C3CC[C@@]21C` (stereo partly specified): the GI50 with 786-0, in the assay with NCI-H23, with SR, in the assay with U-251, with SK-MEL-28 and in the assay with RXF 393 was > 10 µM (inactive) each time. For the same molecule, the GI50 in the assay with UACC-62 was > 10 µM (inactive); with MOLT-4, > 10 µM (inactive); in the assay with OVCAR-8, > 10 µM (inactive); in the assay with COLO 205, > 10 µM (inactive); with HCT-15 it was above 10 µM; in the assay on KM12, > 10 µM (inactive). The GI50 with Hs-578T was 3.96 µM (inactive); in the assay with A498 it was > 10 µM (inactive); in the assay with CCRF-CEM, > 10 µM (inactive); in the assay with SW-620 it was > 10 µM (inactive); in the assay on SF-539, > 10 µM (inactive); in the assay with MDA-N, > 10 µM (inactive). In addition, in the assay with SK-OV-3, the GI50 is > 10 µM (inactive).

Regarding `CC(=O)Oc1ccc(/C=C/C(=O)OCCOC(=O)/C=C/c2ccc(OC(C)=O)c(OC(C)=O)c2)cc1OC(C)=O`, the GI50 in the assay with 786-0 is 5.06 µM (inactive); in the assay on NCI-H23, 4.26 µM (inactive); in the assay on SR, 3.78 µM (inactive); in the assay with U-251 it was 4.99 µM (inactive); in the assay with SK-MEL-28, 14.4 µM (inactive); with RXF 393 it was 7.76 µM (inactive). The GI50 was 5 µM (inactive) in the assay with UACC-62; 5.61 µM (inactive) in the assay on MOLT-4; 4.8 µM (inactive) with OVCAR-8; 14.1 µM (inactive) with COLO 205; 4.75 µM in the assay with HCT-15; 10.1 µM (inactive) in the assay on KM12. Further, the GI50 in the assay on Hs-578T is 16.8 µM (inactive); in the assay on A498 it was 22 µM (inactive); with CCRF-CEM it was 1.25 µM (inactive); in the assay on SW-620, 9.38 µM (inactive); in the assay with SF-539, 2.72 µM (inactive); in the assay on MDA-N it was 7.14 µM (inactive). The GI50 in the assay on SK-OV-3 was 13.9 µM (inactive).

In the case of `O=[As](O)(O)c1ccc(Cc2ccc([As](=O)(O)O)cc2)cc1`, the GI50 in the assay on 786-0 is 0.356 µM (active); in the assay on NCI-H23 it was 0.773 µM (active); in the assay with SR, 0.269 µM (active); in the assay with U-251 it was 0.371 µM (active); in the assay on SK-MEL-28, 1.32 µM (inactive); in the assay on RXF 393, 0.413 µM (active). In addition, the GI50 was 1.28 µM (inactive) in the assay on UACC-62; 0.457 µM (active) in the assay on MOLT-4; 0.358 µM (active) with OVCAR-8; 0.617 µM (active) with COLO 205; 1.17 µM in the assay with HCT-15; 1.91 µM (inactive) with KM12. In addition, the GI50 in the assay with Hs-578T is 1.33 µM (inactive); in the assay on A498, 2.12 µM (inactive); in the assay on CCRF-CEM, 0.0813 µM (active); with SW-620, 0.27 µM (active); in the assay on SF-539 it was 0.193 µM (active); with MDA-N, 0.421 µM (active). The GI50 in the assay with SK-OV-3 is 2.15 µM (inactive).

As for `Cc1cc2c(cc1C)C(=O)C1(C2)Cc2cc3c(cc2C1=O)CCC3` (stereo unspecified), the GI50 with 786-0, with NCI-H23, in the assay with SR, in the assay on U-251, in the assay on SK-MEL-28 and in the assay with RXF 393 was > 100 µM (inactive) in each case. For the same molecule, the GI50 with UACC-62 was > 100 µM (inactive); in the assay on MOLT-4, > 100 µM (inactive); in the assay on OVCAR-8, > 100 µM (inactive); with COLO 205 it was > 100 µM (inactive); with HCT-15, above 100 µM; with KM12 it was > 100 µM (inactive). In addition, the GI50 in the assay on Hs-578T is > 100 µM (inactive); with A498, > 100 µM (inactive); in the assay on CCRF-CEM, > 100 µM (inactive); in the assay with SW-620, > 100 µM (inactive); in the assay on SF-539, 4.95 µM (inactive); in the assay with MDA-N, > 100 µM (inactive). The GI50 in the assay with SK-OV-3 was > 100 µM (inactive).

In the case of `CCC(=O)O[C@H]1CC[C@H]2[C@@H]3CCC4=C/C(=N/NC(=O)c5cccc6c(=O)c7ccccc7[nH]c56)CC[C@]4(C)[C@H]3CC[C@]12C`, the GI50 was 5.11 µM (inactive) in the assay on 786-0; > 25 µM (inactive) with NCI-H23; > 25 µM (inactive) in the assay on SR; > 25 µM (inactive) with U-251; > 25 µM (inactive) in the assay with SK-MEL-28; > 25 µM (inactive) in the assay with RXF 393. Also, the GI50 is > 25 µM (inactive) in the assay on UACC-62; > 25 µM (inactive) in the assay with MOLT-4; > 25 µM (inactive) in the assay with OVCAR-8; > 25 µM (inactive) with COLO 205; above 25 µM in the assay on HCT-15; > 25 µM (inactive) in the assay on KM12. Moreover, the GI50 in the assay with Hs-578T, in the assay with A498, with CCRF-CEM, in the assay on SW-620, in the assay on SF-539 and in the assay on MDA-N was > 25 µM (inactive) each time. Moreover, the GI50 with SK-OV-3 was > 25 µM (inactive).

As for `COc1ccc(OCC(=O)O)c2c1CCC(C)C2=O` (stereo unspecified), the GI50 in the assay with 786-0, in the assay on U-251, in the assay on SK-MEL-28, in the assay with M19-MEL, in the assay with UACC-62 and in the assay on MOLT-4 was > 100 µM (inactive) throughout. Besides, the GI50 in the assay with OVCAR-8 was > 100 µM (inactive); in the assay on COLO 205, > 100 µM (inactive); with HCT-15, above 100 µM; in the assay on KM12, > 100 µM (inactive); in the assay with A498 it was > 100 µM (inactive); in the assay with CCRF-CEM, > 100 µM (inactive). The GI50 in the assay on SW-620, in the assay on SF-539 and with SK-OV-3 was > 100 µM (inactive) throughout.

Turning to `CCCCc1ccc2[n+](c1)C(C(=O)OCC)=PC2` (stereo unspecified), the GI50 was 72.1 µM (inactive) in the assay on 786-0; 86.1 µM (inactive) in the assay with NCI-H23; 32.7 µM (inactive) in the assay with SR; 71.4 µM (inactive) with U-251; > 100 µM (inactive) with SK-MEL-28; 31.9 µM (inactive) in the assay on RXF 393. Besides, the GI50 in the assay on UACC-62 was > 100 µM (inactive); in the assay on MOLT-4 it was 37.5 µM (inactive); with OVCAR-8 it was > 100 µM (inactive); with COLO 205 it was > 100 µM (inactive); in the assay on HCT-15, 39.6 µM; in the assay on KM12 it was > 100 µM (inactive). Also, the GI50 with Hs-578T was 66.7 µM (inactive); in the assay on A498, > 100 µM (inactive); in the assay on CCRF-CEM, 42.4 µM (inactive); in the assay on SW-620, > 100 µM (inactive); in the assay with SF-539, > 100 µM (inactive); in the assay with MDA-N it was 56.9 µM (inactive). Besides, in the assay with SK-OV-3, the GI50 is > 100 µM (inactive).

As to `CC(=O)O[C@@H]1C=C(C)[C@H](CBr)O[C@@]2(C)CC[C@H](Br)C(C)(C)[C@H]12`, the GI50 with 786-0 is > 100 µM (inactive); in the assay on NCI-H23, > 100 µM (inactive); with SR, 41.2 µM (inactive); in the assay on U-251 it was > 100 µM (inactive); with SK-MEL-28, > 100 µM (inactive); in the assay with RXF 393, > 100 µM (inactive). Besides, the GI50 in the assay on UACC-62 was > 100 µM (inactive); with MOLT-4 it was 77.6 µM (inactive); with OVCAR-8 it was > 100 µM (inactive); in the assay with COLO 205, > 100 µM (inactive); in the assay with HCT-15 it was above 100 µM; in the assay with KM12, > 100 µM (inactive). The GI50 in the assay on Hs-578T was > 100 µM (inactive); in the assay with A498 it was > 100 µM (inactive); in the assay on CCRF-CEM it was 19.4 µM (inactive); in the assay on SW-620, > 100 µM (inactive); in the assay on SF-539 it was > 100 µM (inactive); in the assay on MDA-N, > 100 µM (inactive). Further, the GI50 in the assay with SK-OV-3 was > 100 µM (inactive).

Consider `O=c1ccn([C@H]2CSC[C@@H](CO)C2)c(=O)[nH]1`, for which the GI50 with 786-0, in the assay on NCI-H23, in the assay on U-251, in the assay with SK-MEL-28, in the assay with M19-MEL and in the assay with UACC-62 was > 100 µM (inactive) each time. Moreover, the GI50 with MOLT-4 is > 100 µM (inactive); in the assay on OVCAR-8, > 100 µM (inactive); in the assay on HCT-15, above 100 µM; in the assay with KM12 it was > 100 µM (inactive); with A498, > 100 µM (inactive); with CCRF-CEM, > 100 µM (inactive). For the same molecule, the GI50 in the assay with SW-620, in the assay with SF-539 and in the assay with SK-OV-3 was > 100 µM (inactive) throughout.

In the case of `CCCCCC1=CC(=O)C1(Cl)Cl`, the GI50 with 786-0 was 13.9 µM (inactive); with NCI-H23, 14.3 µM (inactive); in the assay with SR, 6 µM (inactive); in the assay on U-251, 9.23 µM (inactive); in the assay on SK-MEL-28 it was 14.5 µM (inactive); in the assay on RXF 393, 12.7 µM (inactive). Also, the GI50 in the assay on UACC-62 was 10.9 µM (inactive); in the assay with MOLT-4, 3.67 µM (inactive); in the assay with OVCAR-8 it was 10.6 µM (inactive); with COLO 205 it was 12.2 µM (inactive); with HCT-15 it was 12.6 µM; in the assay with KM12, 13.2 µM (inactive). Further, the GI50 is 19 µM (inactive) in the assay on Hs-578T; 20.4 µM (inactive) in the assay with A498; 2.23 µM (inactive) with CCRF-CEM; 11.9 µM (inactive) in the assay on SW-620; 12.4 µM (inactive) in the assay on SF-539; 10.5 µM (inactive) in the assay with MDA-N. In the assay with SK-OV-3, the GI50 was 33.9 µM (inactive).
